Assay results from ChEMBL document CHEMBL6109090, “Design, synthesis, and biological evaluation of novel and highly potent peptides targeting syntenin” (Eur J Med Chem, 2025).
The source made the active and inactive calls. The calls are words filed in the database; no cut-off is given here. Non-standard residues stand in square brackets, D forms with d. Residues, ends and D or L forms follow the SMILES beside them. Phg = N[C@H](C(=O)O)c1ccccc1

What was measured:
[1] = Binding affinity to Syntenin PDZ1 domain (unknown origin) assessed as dissociation constant by MST analysis; design: species or system Homo sapiens
[2] = Stability in mouse serum at 5 uM measured after 4 hrs by HPLC analysis; format: ADME, cell-free; conditions: for Stability: serum, 4 h, 5 µM
[3] = Antiproliferative activity against human SK-RC-20 cells assessed as inhibition of cell growth measured at 24 hrs by MTT assay; format: functional, cell-based; conditions: SK-RC-20, 24 h
[4] = Antiproliferative activity against human SK-RC-20 cells assessed as inhibition of cell growth measured at 48 hrs by MTT assay; format: functional, cell-based; conditions: SK-RC-20, 48 h
[5] = Antiproliferative activity against human SK-RC-20 cells assessed as inhibition of cell growth measured at 72 hrs by MTT assay; format: functional, cell-based; conditions: SK-RC-20, 72 h
A498 = assay: Antiproliferative activity against human A498 cells assessed as inhibition of cell growth measured after 24 to 72 hrs by MTT assay; format: functional, cell-based; conditions: time 24-72 hrs
SK-RC-20 [6] = assay: Downregulation of MMP2 mRNA expression in human SK-RC-20 cells at 50 to 100 nM by RT-PCR analysis; format: functional, cell-based; conditions: dose 50-100 nM
UO-31 = assay: Antiproliferative activity against human UO-31 cells assessed as inhibition of cell growth measured after 24 to 72 hrs by MTT assay; format: functional, cell-based; conditions: time 24-72 hrs
SK-RC-20 [7] = assay: Binding affinity to immobilized Syntenin in human SK-RC-20 cells at 5 uM incubated for 2 hrs by pull down assay; format: cell-based
CAKI-1 = assay: Antiproliferative activity against human CAKI-1 cells assessed as inhibition of cell growth measured after 24 to 72 hrs by MTT assay; format: functional, cell-based; conditions: time 24-72 hrs
SK-RC-20 [8] = assay: Downregulation of MT1-MMP mRNA expression in human SK-RC-20 cells at 50 to 100 nM by RT-PCR analysis; format: functional, cell-based; conditions: dose 50-100 nM
SK-RC-20 [9] = assay: Antitumor activity in human SK-RC-20 cells xenografted in male BALB/c nude mouse model assessed as inhibition of tumor growth at 15 mg/kg measured every three days for 15 days; format: functional, organism-based; conditions: time 15.0 day
[10] = Toxicity in male BALB/c nude mouse assessed as change in body weight at 5 to 15 mg/kg measured every three days for 15 days; format: organism-based; conditions: in vivo, 360 h, dose 5-15 mg/kg, time 15 day
SK-RC-20 [11] = assay: Antitumor activity in human SK-RC-20 cells xenografted in male BALB/c nude mouse model assessed as reduction in tumor volume at 5 to 15 mg/kg measured every three days for 15 days; format: functional, organism-based; conditions: dose 5-15 mg/kg, time 15.0 day
KMRC-1 = assay: Antiproliferative activity against human KMRC-1 cells assessed as inhibition of cell growth measured after 24 to 72 hrs by MTT assay; format: functional, cell-based; conditions: time 24-72 hrs

Compound `CC[C@H](C)[C@H](NC(=O)[C@@H](NC(=O)[C@@H](NC(=O)[C@@H](NC(=O)[C@H](Cc1c[nH]c2ccccc12)NC(=O)[C@@H](CCCCN)NC(=O)[C@@H](NC(C)=O)[C@@H](C)O)C(C)C)c1ccccc1)C(C)C)C(N)=O` has a Kd [1] of 28.3 nM.
`CC[C@H](C)[C@H](NC(=O)[C@H](CC(=O)O)NC(=O)[C@@H](NC(=O)[C@@H](NC(=O)[C@H](Cc1c[nH]c2ccccc12)NC(=O)[C@@H](CCCCN)NC(=O)[C@H](C)NC(C)=O)C(C)C)c1ccccc1)C(N)=O` showed a Kd [1] of 9.07 nM.
`CC[C@H](C)[C@H](NC(=O)[C@H](CC(=O)O)NC(=O)[C@@H](NC(=O)[C@@H](NC(=O)[C@H](Cc1c[nH]c2ccccc12)NC(=O)[C@H](NC(=O)[C@@H](NC(C)=O)[C@@H](C)O)C(C)C)C(C)C)c1ccccc1)C(N)=O` gave a Kd [1] of 15.2 nM.
For `CC[C@H](C)[C@H](NC(=O)[C@H](CC(=O)O)NC(=O)[C@@H](NC(=O)[C@@H](NC(=O)[C@H](Cc1cnc[nH]1)NC(=O)[C@@H](CCCCN)NC(=O)[C@@H](NC(C)=O)[C@@H](C)O)C(C)C)c1ccccc1)C(N)=O`, the Kd [1] was 34.1 nM.
In the case of `CC[C@H](C)[C@H](NC(=O)[C@H](CC(=O)O)NC(=O)[C@H](NC(=O)[C@@H](NC(=O)[C@H](Cc1c[nH]c2ccccc12)NC(=O)[C@@H](CCCCN)NC(=O)[C@@H](NC(C)=O)[C@@H](C)O)C(C)C)C(C)C)C(N)=O`, the Kd [1] is reported as 19.7 nM.
With `CC[C@H](C)[C@H](NC(=O)[C@H](CC(=O)O)NC(=O)[C@@H](NC(=O)[C@@H](NC(=O)[C@H](Cc1c[nH]c2ccccc12)NC(=O)[C@H](Cc1cnc[nH]1)NC(=O)[C@@H](N)CO)[C@@H](C)O)[C@@H](C)CC)C(=O)O` (H-SHWTIDI-OH) the Stability [2] was “Unstable”.
With `CC[C@H](C)[C@H](NC(=O)[C@H](CC(=O)O)NC(=O)[C@@H](NC(=O)[C@@H](NC(=O)[C@H](Cc1c[nH]c2ccccc12)NC(=O)[C@H](Cc1cnc[nH]1)NC(=O)[C@H](CO)NC(=O)[C@@H](CCCNC(=N)N)NC(=O)[C@H](CCCNC(=N)N)NC(=O)[C@@H](CCCNC(=N)N)NC(=O)[C@H](CCCNC(=N)N)NC(=O)[C@@H](CCCNC(=N)N)NC(=O)CNC(=O)[C@@H](CCCNC(=N)N)NC(=O)[C@H](CCCNC(=N)N)NC(=O)[C@@H](CCCNC(=N)N)NC(C)=O)C(C)(C)C)C1CCCCC1)C(=O)O` the Kd [1] was 0.3 nM, the IC50 [3] was 22100 nM and the IC50 [4] was 14400 nM. The Stability [2] was “Unstable” and the IC50 [5] was 9710 nM.
For `CC[C@H](C)[C@H](NC(=O)[C@H](CC(=O)O)NC(=O)[C@@H](NC(=O)[C@@H](NC(=O)[C@H](Cc1c[nH]c2ccccc12)NC(=O)[C@H](CCCCN)NC(=O)[C@@H](NC(C)=O)[C@@H](C)O)C(C)C)c1ccccc1)C(N)=O` (Ac-TKWV[Phg]DI-NH2), the Kd [1] was 6.15 nM, the Activity (A498) was “Active” and the Activity (SK-RC-20 [6]) was “Active”. The Activity (UO-31) was “Active”, the Activity (SK-RC-20 [7]) was “Active” and the Activity (CAKI-1) was “Active”. The IC50 [3] was 1240 nM, the Activity (SK-RC-20 [8]) was “Active” and the IC50 [4] was 910 nM. For the same compound, the Activity (SK-RC-20 [9]) was “Active”, the Activity [10] was “Toxic” and the remaining at 4 h, 5 µM ([2]; mouse serum, read-out: Stability) was roughly 80%. For the same compound, the Activity (SK-RC-20 [11]) was “Active”, the Activity (KMRC-1) was “Active” and the IC50 [5] was 560 nM.
